Experimental data published in publication PMC12390684 (Viruses, 2025).
Numbered stars: 1 amine (or outer) side, 2 acyl side, 3 side chain; on linkers, the order of the positions; unused ones are H or OH. Bridge positions count the residues as written; N and C are the ends. Square brackets hold non-standard residues; d marks the D form. Peptide text beside a SMILES is read from it. I, II: the chains in the order shown. Actinocin(9to1) = Cc1c2oc3c(C)ccc(C(=O)[*:1])c3nc-2c(C(=O)[*:2])c(N)c1=O; NMeV = CN[C@H](C(=O)O)C(C)C; Sar = CNCC(=O)O

Biological target: IN-GCN2 interaction (6xHis-IN / GST-GCN2) (UniProt P04585+Q9P2K8)
Sequence (Q9P2K8 192-1024, other chains not shown): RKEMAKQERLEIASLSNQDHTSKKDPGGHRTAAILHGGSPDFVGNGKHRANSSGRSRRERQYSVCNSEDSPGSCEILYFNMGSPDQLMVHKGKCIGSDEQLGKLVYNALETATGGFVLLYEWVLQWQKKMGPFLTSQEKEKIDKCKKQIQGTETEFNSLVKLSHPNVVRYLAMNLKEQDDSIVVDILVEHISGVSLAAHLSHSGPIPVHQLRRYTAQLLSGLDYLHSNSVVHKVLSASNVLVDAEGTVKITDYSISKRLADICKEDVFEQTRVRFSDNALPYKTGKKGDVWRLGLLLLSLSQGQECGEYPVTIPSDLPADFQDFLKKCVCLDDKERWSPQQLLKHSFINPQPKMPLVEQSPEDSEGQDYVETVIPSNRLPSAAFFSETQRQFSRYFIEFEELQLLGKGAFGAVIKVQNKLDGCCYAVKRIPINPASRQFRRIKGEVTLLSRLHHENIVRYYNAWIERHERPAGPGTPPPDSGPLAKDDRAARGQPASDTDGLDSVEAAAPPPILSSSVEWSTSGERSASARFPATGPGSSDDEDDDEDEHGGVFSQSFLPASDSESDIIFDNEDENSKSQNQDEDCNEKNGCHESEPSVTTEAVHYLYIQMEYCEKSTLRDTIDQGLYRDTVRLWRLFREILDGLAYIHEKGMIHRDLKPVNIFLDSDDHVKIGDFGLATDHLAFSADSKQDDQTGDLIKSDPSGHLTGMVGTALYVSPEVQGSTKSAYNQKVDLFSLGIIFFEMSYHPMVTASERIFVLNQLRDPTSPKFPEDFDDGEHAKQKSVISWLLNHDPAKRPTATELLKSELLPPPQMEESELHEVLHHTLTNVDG
Experiment: biochemical
Assay type: binding, HIV-1 IN; human GCN2
Details: screen, single dose 100 µM, single replicate, residual AlphaLISA signal normalized to DMSO control

| Structure (SMILES) | IN-GCN2 interaction (%) | also measured |
| --- | --- | --- |
| COc1cc2c(c(OC)c1OC)-c1ccc(OC)c(=O)cc1[C@@H](NC(C)=O)CC2 [NSC757] | 116.47 |  |
| CC1(C)[C@H](C(=O)O)CC[C@]1(C)C(=O)O [NSC824] | 90.14 |  |
| O=C(O)C1(O)C[C@@H](O)C(O)[C@H](O)C1 (some centres unmarked) [NSC1115] |  | IN-GCN2 interaction (%) (listed as 1115): 83.40% |
| OC[C@H]1O[C@@](CO)(O[C@H]2O[C@H](CO)[C@@H](O)[C@H](O)[C@H]2O)[C@@H](O[C@H]2O[C@H](CO)[C@@H](O)[C@H](O)[C@H]2O)[C@@H]1O [NSC2080] | 102.20 |  |
| COc1cccc(C=O)c1O [NSC2150] | 88.39 |  |
| O=C(O)CC(CC(=O)O)C(=O)O [NSC2347] | 84.06 |  |
| CC1(C)C(CC(=O)O)CC1C(=O)O (centres unmarked) [NSC2802] | 86.94 |  |
| CCCCCC[C@@H](O)C/C=C\CCCCCCCC(=O)[O-].[Na+] [NSC2835] | 143.81 |  |
| CC(C)c1ccc2c(c1)CC[C@H]1[C@](C)(C(=O)O)CCC[C@]21C [NSC2952] | 107.26 |  |
| Cc1c2oc3c(C)ccc(C(=O)N[C@@H]4C(=O)N[C@H](C(C)C)C(=O)N5CCC[C@H]5C(=O)N(C)CC(=O)N(C)[C@@H](C(C)C)C(=O)O[C@@H]4C)c3nc-2c(C(=O)N[C@@H]2C(=O)N[C@H](C(C)C)C(=O)N3CCC[C@H]3C(=O)N(C)CC(=O)N(C)[C@@H](C(C)C)C(=O)O[C@@H]2C)c(N)c1=O [NSC3053] (I: T[dV]P[Sar][NMeV] / II: T[dV]P[Sar][NMeV]; ester I:1-I:C, II:1-II:C; linker I:N-II:N via Actinocin(9to1)) | 121.53 |  |
| COC1=CC(=O)C(C)=CC1=O [NSC3071] | 99.07 |  |
| Nc1nc2c(c(=O)[nH]1)N(C=O)C(CNc1ccc(C(=O)N[C@@H](CCC(=O)O)C(=O)O)cc1)CN2 (some centres unmarked) [NSC3590] | 94.67 |  |
| CC(=O)CCC(=O)O [NSC3716] | 123.74 |  |
| NC(Cc1cc(I)c(O)c(I)c1)C(=O)O (centres unmarked) [NSC4143] | 75.41 |  |
| COc1cc([C@H]2c3cc(O)c(OC)cc3C[C@H]3C(=O)OC[C@H]23)ccc1O [NSC4586] | 86.55 |  |
| CC(C)=CCc1c2c(c3occ(-c4ccc(O)c(O)c4)c(=O)c3c1O)C=CC(C)(C)O2 [NSC5113] | 36.50 |  |
| CO[C@H]1[C@@H](O)[C@@H](C)O[C@H](O[C@H]2[C@H](Oc3cccc4c(O)c5c(=O)oc6ccc(C)c7c(=O)oc(c34)c5c67)O[C@H](C)[C@H](O)[C@@H]2O)[C@@H]1O [NSC5159] | 121.88 |  |
| COc1ccc2c(c1OC)C(=O)O[C@@H]2[C@H]1c2c(cc3c(c2OC)OCO3)CCN1C [NSC5366] | 132.74 |  |
| CCCCCCCCCCCCCCCCCCO [NSC5379] | 92.43 |  |
| O=c1[nH]cnc2ccccc12 [NSC5863] | 93.27 |  |
| COC(=O)/C(=C1/OC(=O)C(c2ccccc2)=C1O)c1ccccc1 [NSC5897] | 95.33 |  |
| C=C[C@]1(C)C=C2CC[C@@H]3[C@](C)(CCC[C@@]3(C)C(=O)O)[C@H]2CC1 [NSC6435] | 127.66 |  |
| CC1=CC(=O)[C@@H]2C[C@H]1C2(C)C [NSC6832] | 90.37 |  |

| Structure (SMILES) | IN-GCN2 interaction (%) | also measured |
| --- | --- | --- |
| C[C@@H]1O[C@@H](O[C@@H]2C=C3CC[C@@H]4[C@H](CC[C@]5(C)[C@@H](c6ccc(=O)oc6)CC[C@]45O)[C@@]3(C)CC2)[C@H](O)[C@H](O)[C@H]1O [NSC7521] | 97.97 |  |
| COc1ccc(C(=O)O[C@H]2CC[C@@]3(C)[C@@H]4CC[C@H]5[C@]6(O)C[C@H](O)[C@@]7(O)[C@@H](CN8C[C@@H](C)CC[C@H]8[C@@]7(C)O)[C@]6(O)C[C@@]53O[C@]24O)cc1OC [NSC7524] | 106.09 |  |
| C[C@@H]1O[C@@H](O[C@@H]2C=C3CC[C@@H]4[C@H](CC[C@]5(C)[C@@H](c6ccc(=O)oc6)CC[C@]45O)[C@@]3(C)CC2)[C@H](O)[C@H](O)[C@H]1O[C@@H]1O[C@H](CO)[C@@H](O)[C@H](O)[C@H]1O [NSC7525] | 99.88 |  |
| CC(=O)O[C@H]1C[C@H](O[C@H]2[C@@H](O)C[C@H](O[C@H]3[C@@H](O)C[C@H](O[C@H]4CC[C@@]5(C)[C@H](CC[C@@H]6[C@@H]5CC[C@]5(C)[C@@H](C7=CC(=O)OC7)CC[C@]65O)C4)O[C@@H]3C)O[C@@H]2C)O[C@H](C)[C@H]1O[C@@H]1O[C@H](CO)[C@@H](O)[C@H](O)[C@H]1O [NSC7532] | 117.74 |  |
| CC(=O)O[C@H]1C[C@H](O[C@H]2[C@@H](O)C[C@H](O[C@H]3[C@@H](O)C[C@H](O[C@H]4CC[C@@]5(C)[C@H](CC[C@@H]6[C@@H]5C[C@@H](O)[C@]5(C)[C@@H](C7=CC(=O)OC7)CC[C@]65O)C4)O[C@@H]3C)O[C@@H]2C)O[C@H](C)[C@H]1O[C@@H]1O[C@H](CO)[C@@H](O)[C@H](O)[C@H]1O [NSC7533] | 107.72 |  |
| CC(=O)O[C@H]1C[C@H](O[C@H]2[C@@H](O)C[C@H](O[C@H]3[C@@H](O)C[C@H](O[C@H]4CC[C@@]5(C)[C@H](CC[C@@H]6[C@@H]5CC[C@]5(C)[C@@H](C7=CC(=O)OC7)[C@@H](O)C[C@]65O)C4)O[C@@H]3C)O[C@@H]2C)O[C@H](C)[C@H]1O[C@@H]1O[C@H](CO)[C@@H](O)[C@H](O)[C@H]1O [NSC7535] | 83.30 |  |
| NC(=O)NC1NC(=O)NC1=O (centres unmarked) [NSC7606] | 88.72 |  |
| O=C(O)/C=C(/CC(=O)O)C(=O)O [NSC7616] | 85.71 |  |
| Nc1ncnc2c1ncn2[C@@H]1O[C@H](CO)[C@@H](O)[C@H]1O [NSC7652] | 51.17 |  |
| O=C(O)CCCCCCC[C@@H](O)[C@@H](O)CCCCCCO [NSC7668] | 129.82 |  |
| COc1c2occc2c(OC)c2c(=O)cc(C)oc12 [NSC8519] | 129.74 |  |
| Oc1ccc2c(c1)OC[C@]1(O)Cc3cc(O)c(O)cc3[C@H]21 [NSC8661] | 86.68 |  |
| C/C=C/C(=O)O [NSC8751] | 85.97 |  |
| C[C@H](CCC(=O)O)[C@H]1CC[C@H]2[C@@H]3CC[C@@H]4C[C@H](O)CC[C@]4(C)[C@H]3C[C@H](O)[C@]12C [NSC8797] | 85.28 |  |
| CC(C)[C@H]1CC[C@@](C)(C(=O)O)C1 [NSC8973] | 89.12 |  |
| O=C(O)C1OC(O)C(O)C(O)C1O (centres unmarked) [NSC9248] | 110.72 |  |
| CO[C@@H]1[C@H](O)CC[C@]2(CO2)[C@H]1[C@@]1(C)O[C@@H]1CC=C(C)C [NSC9665] | 118.70 |  |
| C[C@]12CC[C@@H]3c4ccc(O)cc4CC[C@H]3[C@@H]1CCC2=O [NSC9699] | 98.84 |  |
| COc1cc2c(cc1OC)CN1CCc3cc(OC)c(OC)cc3C1C2 (centres unmarked) [NSC10105] | 96.86 |  |
| CN1CCc2cc3c(cc2C(=O)Cc2ccc4c(c2C1)OCO4)OCO3.Cl [NSC11440] | 160.70 |  |
| COc1ccc(/C=C/C(=O)c2ccccc2)cc1 [NSC11866] | 81.82 |  |
| CC(C)=CCC1=C(O)c2ccccc2C(=O)C1=O [NSC11905] | 107.31 |  |
| COc1cccc2c1cc([N+](=O)[O-])c1c(C(=O)O)cc3c(c12)OCO3 [NSC11926] | 137.25 |  |

| Structure (SMILES) | IN-GCN2 interaction (%) | also measured |
| --- | --- | --- |
| O=c1ccc2nc3ccc(O)cc3oc-2c1 [NSC12097] | 169.88 |  |
| O=C(O)C1C2CC3OC(=O)C1C3C2 (centres unmarked) [NSC12444] | 94.03 |  |
| Br.C=CC1CN2CCC1CC2C(O)c1ccnc2ccc(OC)cc12 (centres unmarked) [NSC12865] | 97.92 |  |
| CN1CC(=O)NC1=N [NSC13123] | 106.95 |  |
| CN(C)[C@@H]1C(O)=C(C(N)=O)C(=O)[C@@]2(O)C(O)=C3C(=O)c4c(O)ccc(Cl)c4[C@@](C)(O)[C@H]3C[C@@H]12 [NSC13252] | 93.93 |  |
| COc1cc(O)c(C(C)=O)c2c1C=CC(C)(C)O2 [NSC14135] | 87.24 |  |
| O=c1[nH]c(=O)c2[nH]cnc2[nH]1 [NSC14664] | 105.35 |  |
| O=c1[nH]cnc2nc[nH]c12 [NSC14665] | 108.10 |  |
| CC1=CC(O)C(O)C2(C)C1CC1OC(=O)C(O)C3C(C)C(O)C4(O)OCC13C42 (centres unmarked) [NSC14974] | 90.88 |  |
| CC[C@](C)(O)C(=O)O[C@H]1C(=O)O[C@@H]2C[C@H]3C(C)=C[C@H](O)[C@@H](O)[C@]3(C)[C@H]3[C@]4(O)OC[C@]32[C@@H]1[C@@H](C)[C@H]4O [NSC14975] | 117.58 |  |
| C=C[C@H]1CN2CC[C@H]1C[C@H]2C(=O)c1ccnc2ccc(OC)cc12 [NSC15307] | 84.16 |  |
| COC(=O)C1=CO[C@@H](C)[C@@H]2CN3CCc4c([nH]c5cc(OC)ccc45)[C@@H]3C[C@H]12 [NSC15624] | 43.70 |  |
| N#C[C@H](O[C@@H]1O[C@H](CO[C@@H]2O[C@H](CO)[C@@H](O)[C@H](O)[C@H]2O)[C@@H](O)[C@H](O)[C@H]1O)c1ccccc1 [NSC15780] | 121.81 |  |
| O=C(O)c1ccc(O)c(O)c1 [NSC16631] | 69.74 |  |
| CC(C)c1ccc(O)c(=O)cc1 [NSC18805] |  | IN-GCN2 interaction (%) (listed as 18805): 75.92% |
| O=c1cc(-c2ccccc2)oc2ccccc12 [NSC19028] | 58.68 |  |
| COc1ccc(/C=C/C(=O)c2c(OC)cc(OC)c(OC)c2O)cc1 [NSC19038] | 50.51 |  |
| COC(=O)[C@@H]1[C@H]2C[C@H]3c4[nH]c5ccccc5c4CCN3C[C@@H]2CC[C@@H]1O [NSC19509] | 68.27 |  |
| COC(=O)[C@@H]1[C@H](O)[C@H](C)[C@H](O)[C@H](C)/C=C\C=C(/C)C(=O)Nc2c(C)c(OC(C)=O)c3c(c2O)C(=O)C(C)=C2OCOC(=C23)/C(C)=C/[C@@](C)(O)[C@H](O)[C@@H](C)[C@H]1O [NSC19990] | 69.46 |  |
| O=C(O)c1cc(O)c(O)c(O)c1 [NSC20103] | 83.04 |  |
| Nc1ncnc2c1ncn2[C@@H]1O[C@H](COP(=O)(O)O)[C@@H](O)[C@H]1O [NSC20264] | 82.61 |  |
| O=c1cccc2n1C[C@H]1C[C@@H]2CN2CCCC[C@@H]12 [NSC21725] | 90.50 |  |
